We go through 28 compounds from ChEMBL document CHEMBL1138499, “Anti-AIDS agents. 78. Design, synthesis, metabolic stability assessment, and antiviral evaluation of novel betulinic acid derivatives as potent anti-human immunodeficiency virus (HIV) agents” (J Med Chem, 2009).

Molecules are shown by their SMILES.

Data set [1] has as its system MT4. Kind of data set: Cytotoxicity against human MT4 cells by XTT assay. Type of data set: cell-based.
In data set [2] the test system is Human immunodeficiency virus 1. As to the kind of experiment: Antiviral activity against HIV1 NL4-3 infected in human MT4 cells assessed as p24 antigen level after 4 days by ELISA. The format is functional, organism-based. The conditions noted are these: Human immunodeficiency virus 1, NL4-3, MT4, 96 h.
Data set [3] relates to MT2. The conditions noted are these: human.
Description: Cytotoxicity against human MT2 cells by XTT assay
Data set [4] relates to Human immunodeficiency virus 1. As to the kind of experiment: Antiviral activity against HIV1 3B infected in human MT2 cells assessed as p24 antigen level at their respective CC50 concentration after 4 days by ELISA. The format is functional, organism-based.
For data set [5], the system named is Human immunodeficiency virus 1. Kind of data set: Antiviral activity against HIV1 3B infected in human MT2 cells assessed as p24 antigen level after 4 days by ELISA. The format is functional, organism-based. The conditions noted are these: Human immunodeficiency virus 1, 3B, MT2, 96 h.
The nature of data set [6]: Therapeutic index, ratio of CC50 for human MT4 cells to EC50 for HIV1 NL4-3. The format is cell-based. The conditions noted are these: read-out: TI.
Data set [7] in a line: Therapeutic index, ratio of CC50 for human MT2 cells to EC50 for HIV1 3B. The format is cell-based. The conditions noted are these: read-out: TI.

In data set [1], `C=C(C)[C@@H]1CC[C@]2(C(=O)NCCCCCCCC(=O)N[C@@H](CC(C)C)[C@H](O)CC(=O)O)CC[C@]3(C)[C@H](CC[C@@H]4[C@@]5(C)CC[C@H](O)C(C)(C)[C@@H]5CC[C@]43C)[C@@H]12` came in with a CC50 of more than 10 µM. Also, in data set [2], the EC50 was 0.089 µM.

The compound `C=C(C)[C@@H]1CC[C@]2(C(=O)N[C@@H](CC(C)C)C(=O)O)CC[C@]3(C)[C@H](CC[C@@H]4[C@@]5(C)CC[C@H](O)C(C)(C)[C@@H]5CC[C@]43C)[C@@H]12` gave a CC50 in data set [3] of 29.8 µM. For the same compound, the EC50 entry in data set [4] is on record as “Not Active”.

Take `C=C(C)[C@@H]1CC[C@]2(C(=O)N3CCC(CCCC(=O)N4CCOCC4)CC3)CC[C@]3(C)[C@H](CC[C@@H]4[C@@]5(C)CC[C@H](OC(=O)CC(C)(C)C(=O)O)C(C)(C)[C@@H]5CC[C@]43C)[C@@H]12`: the EC50 came to 0.011 µM in data set [5] and 0.07 µM in data set [2]. For the same compound, the values for the CC50 in data set [3] and in data set [1] were 19.2 µM and 8.8 µM, respectively. Besides, the selectivity ratio in data set [6] is 121; in data set [7], 1750.

`C=C(CBr)[C@@H]1CC[C@]2(C(=O)N[C@@H](CC(C)C)C(=O)O)CC[C@]3(C)[C@H](CC[C@@H]4[C@@]5(C)CC[C@H](O)C(C)(C)[C@@H]5CC[C@]43C)[C@@H]12` had a CC50 in data set [3] of 26.8 µM. Moreover, in data set [4], the EC50 entry is listed as “Not Active”.

Take `C=C(CBr)[C@@H]1CC[C@]2(C(=O)N[C@@H](CC(C)C)C(=O)O)CC[C@]3(C)[C@H](CC[C@@H]4[C@@]5(C)CC[C@H](OC(=O)CC(C)(C)C(=O)O)C(C)(C)[C@@H]5CC[C@]43C)[C@@H]12`: in data set [5], the EC50 was 0.011 µM. In data set [3], this compound displayed a CC50 of 33.2 µM. The selectivity ratio in data set [7] came to 3020.

Compound `C=C(COCCC)[C@@H]1CC[C@]2(C(=O)N[C@@H](CC(C)C)C(=O)O)CC[C@]3(C)[C@H](CC[C@@H]4[C@@]5(C)CC[C@H](O)C(C)(C)[C@@H]5CC[C@]43C)[C@@H]12` returned a CC50 in data set [3] of 25.3 µM. For the same compound, the EC50 result in data set [4] is “Not Active”.

In the case of `C=C(COCCN1CCOCC1)[C@@H]1CC[C@]2(C(=O)NCCCCCCCC(=O)NC)CC[C@]3(C)[C@H](CC[C@@H]4[C@@]5(C)CC[C@H](O)C(C)(C)[C@@H]5CC[C@]43C)[C@@H]12`, the EC50 in data set [5] and in data set [2] was 0.09 µM in each case. In addition, the CC50 in data set [3] was 22.3 µM; in data set [1] it was more than 10 µM. Further, the selectivity ratio in data set [6] was more than 138; in data set [7] it was 250.

As to `C=C(C)[C@@H]1CC[C@]2(C(=O)N[C@@H](CC(C)C)C(=O)O)CC[C@]3(C)[C@H](CC[C@@H]4[C@@]5(C)CC[C@H](NC(=O)CC(C)(C)C(=O)O)C(C)(C)[C@@H]5CC[C@]43C)[C@@H]12`, the EC50 in data set [5] was determined as 13.2 µM. For the same compound, in data set [3], the CC50 is 35.9 µM. Also, the selectivity ratio in data set [7] turned out to be 2.7.

As for `C=C(CBr)[C@@H]1CC[C@]2(C(=O)NCCCCCCCC(=O)O)CC[C@]3(C)[C@H](CC[C@@H]4[C@@]5(C)CC[C@H](O)C(C)(C)[C@@H]5CC[C@]43C)[C@@H]12`, in data set [5], the EC50 amounted to 2.3 µM. The compound also returned a CC50 in data set [3] of 36.9 µM. The selectivity ratio in data set [7] came to 16.1.

As to `C=C(C)[C@@H]1CC[C@]2(C(=O)N3CCC(CCCC(=O)NC)CC3)CC[C@]3(C)[C@H](CC[C@@H]4[C@@]5(C)CC[C@H](OC(=O)CC(C)(C)C(=O)O)C(C)(C)[C@@H]5CC[C@]43C)[C@@H]12`, the EC50 was found to be 0.067 µM in data set [5] and 0.24 µM in data set [2]. The CC50 was 33.3 µM in data set [3] and more than 10 µM in data set [1]. Besides, the selectivity ratio in data set [7] was found to be 497.

As for `C=C(C)[C@@H]1CC[C@]2(C(=O)N3CCC(CCCC(=O)NCCN4CCOCC4)CC3)CC[C@]3(C)[C@H](CC[C@@H]4[C@@]5(C)CC[C@H](OC(=O)CC(C)(C)C(=O)O)C(C)(C)[C@@H]5CC[C@]43C)[C@@H]12`, the EC50 in data set [5] turned out to be 0.007 µM; in data set [2], 0.035 µM. Also, the results for the CC50 in data set [3] and in data set [1] were 17.3 µM and 8.5 µM, respectively. Besides, the results for the selectivity ratio in data set [6] and in data set [7] were 284 and 2470, respectively.

`C=C(COCCc1ccc(F)cc1)[C@@H]1CC[C@]2(C(=O)N[C@@H](CC(C)C)C(=O)O)CC[C@]3(C)[C@H](CC[C@@H]4[C@@]5(C)CC[C@H](O)C(C)(C)[C@@H]5CC[C@]43C)[C@@H]12` showed a CC50 in data set [3] of 24.4 µM. In addition, in data set [4], the EC50 entry was “Not Active”.

Turning to `C=C(C)[C@@H]1CC[C@]2(C(=O)N3CCC(CCCC(=O)O)CC3)CC[C@]3(C)[C@H](CC[C@@H]4[C@@]5(C)CC[C@H](OC(=O)CC(C)(C)C(=O)O)C(C)(C)[C@@H]5CC[C@]43C)[C@@H]12`, the EC50 in data set [5] stood at 0.015 µM. In data set [3], this compound yielded a CC50 of 20.8 µM. The selectivity ratio in data set [7] turned out to be 1390.

With `C=C(COCCc1ccc(Cl)cc1)[C@@H]1CC[C@]2(C(=O)N[C@@H](CC(C)C)C(=O)O)CC[C@]3(C)[C@H](CC[C@@H]4[C@@]5(C)CC[C@H](O)C(C)(C)[C@@H]5CC[C@]43C)[C@@H]12`, the EC50 in data set [5] was determined as 27.8 µM. Also, the CC50 in data set [3] was 34.6 µM. For the same compound, the selectivity ratio in data set [7] is 1.2.

Take `C=C(COCCN1CCOCC1)[C@@H]1CC[C@]2(C(=O)N[C@@H](CC(C)C)C(=O)O)CC[C@]3(C)[C@H](CC[C@@H]4[C@@]5(C)CC[C@H](O)C(C)(C)[C@@H]5CC[C@]43C)[C@@H]12`: the EC50 in data set [5] is 26.6 µM. In data set [3], this compound returned a CC50 of 35.8 µM. Also, the selectivity ratio in data set [7] is 1.4.

For the compound `C=C(CON1CCOCC1)[C@@H]1CC[C@]2(C(=O)N[C@@H](CC(C)C)C(=O)O)CC[C@]3(C)[C@H](CC[C@@H]4[C@@]5(C)CC[C@H](O)C(C)(C)[C@@H]5CC[C@]43C)[C@@H]12`, the CC50 in data set [3] is 27.5 µM. The EC50 result in data set [4] is listed as “Not Active”.

In data set [3], `C=C(COCCc1ccccc1)[C@@H]1CC[C@]2(C(=O)N[C@@H](CC(C)C)C(=O)O)CC[C@]3(C)[C@H](CC[C@@H]4[C@@]5(C)CC[C@H](O)C(C)(C)[C@@H]5CC[C@]43C)[C@@H]12` returned a CC50 of 21.7 µM. Besides, the EC50 result in data set [4] is “Not Active”.

`C=C(CO)[C@@H]1CC[C@]2(C(=O)NCCCCCCCC(=O)O)CC[C@]3(C)[C@H](CC[C@@H]4[C@@]5(C)CC[C@H](O)C(C)(C)[C@@H]5CC[C@]43C)[C@@H]12`: the EC50 in data set [5] worked out at 14.8 µM. The compound further registered a CC50 in data set [3] of 40.7 µM. The selectivity ratio in data set [7] came out at 2.8.

`C=C(COCCc1ccc(OC)cc1)[C@@H]1CC[C@]2(C(=O)N[C@@H](CC(C)C)C(=O)O)CC[C@]3(C)[C@H](CC[C@@H]4[C@@]5(C)CC[C@H](O)C(C)(C)[C@@H]5CC[C@]43C)[C@@H]12` showed a CC50 in data set [3] of 16.7 µM. In addition, in data set [4], the EC50 result is listed as “Not Active”.

On to `C=C(COCC)[C@@H]1CC[C@]2(C(=O)N[C@@H](CC(C)C)C(=O)O)CC[C@]3(C)[C@H](CC[C@@H]4[C@@]5(C)CC[C@H](O)C(C)(C)[C@@H]5CC[C@]43C)[C@@H]12`, for which, in data set [3], the CC50 was determined as 40.7 µM. Further, the EC50 result in data set [4] is “Not Active”.

For the compound `C=C(COCCc1ccc(Br)cc1)[C@@H]1CC[C@]2(C(=O)N[C@@H](CC(C)C)C(=O)O)CC[C@]3(C)[C@H](CC[C@@H]4[C@@]5(C)CC[C@H](O)C(C)(C)[C@@H]5CC[C@]43C)[C@@H]12`, the CC50 in data set [3] stood at 20.8 µM. Also, in data set [4], the EC50 entry is listed as “Not Active”.

Turning to `C=C(COCCN1CCOCC1)[C@@H]1CC[C@]2(C(=O)NCCCCCCCC(=O)O)CC[C@]3(C)[C@H](CC[C@@H]4[C@@]5(C)CC[C@H](O)C(C)(C)[C@@H]5CC[C@]43C)[C@@H]12`, in data set [5], the EC50 worked out at 1.8 µM. For the same compound, the CC50 in data set [3] was determined as 24.8 µM. The selectivity ratio in data set [7] amounted to 13.8.

The compound `C=C(CO)[C@@H]1CC[C@]2(C(=O)N[C@@H](CC(C)C)C(=O)O)CC[C@]3(C)[C@H](CC[C@@H]4[C@@]5(C)CC[C@H](O)C(C)(C)[C@@H]5CC[C@]43C)[C@@H]12` showed a CC50 in data set [3] of 30.7 µM. Further, the EC50 result in data set [4] is reported as “Not Active”.

In data set [3], `C=C(COCCCC)[C@@H]1CC[C@]2(C(=O)N[C@@H](CC(C)C)C(=O)O)CC[C@]3(C)[C@H](CC[C@@H]4[C@@]5(C)CC[C@H](O)C(C)(C)[C@@H]5CC[C@]43C)[C@@H]12` yielded a CC50 of 24.9 µM. The EC50 entry in data set [4] is on record as “Not Active”.

Regarding `C=C(C)[C@@H]1CC[C@]2(C(=O)N3CCC(CCCC(=O)O)CC3)CC[C@]3(C)[C@H](CC[C@@H]4[C@@]5(C)CC[C@H](OC(=O)CCC(C)(C)C(=O)O)C(C)(C)[C@@H]5CC[C@]43C)[C@@H]12`, the EC50 in data set [5] amounted to 0.23 µM. The CC50 in data set [3] came to 33.2 µM. Also, the selectivity ratio in data set [7] amounted to 145.

`C=C(C)[C@@H]1CC[C@]2(C(=O)NCCCCCCCNC(C)=O)CC[C@]3(C)[C@H](CC[C@@H]4[C@@]5(C)CC[C@H](O)C(C)(C)[C@@H]5CC[C@]43C)[C@@H]12`: in data set [6], the selectivity ratio is more than 150. Also, the CC50 in data set [1] is more than 10 µM. Also, the EC50 in data set [2] came to 0.092 µM.

For the compound `C=C(C)[C@@H]1CC[C@]2(C(=O)N3CCC(CCCC(=O)NCCCN4CCOCC4)CC3)CC[C@]3(C)[C@H](CC[C@@H]4[C@@]5(C)CC[C@H](OC(=O)CC(C)(C)C(=O)O)C(C)(C)[C@@H]5CC[C@]43C)[C@@H]12`, the EC50 in data set [5] was 0.006 µM; in data set [2], 0.031 µM. The figures for the CC50 in data set [3] and in data set [1] were 18.5 µM and 8.6 µM, respectively. Moreover, the results for the selectivity ratio in data set [6] and in data set [7] were 246 and 3090, respectively.

With `Cc1cn([C@H]2C[C@H](N=[N+]=[N-])[C@@H](CO)O2)c(=O)[nH]c1=O` [ZIDOVUDINE], the CC50 in data set [3] was 1870 µM.
